Values after ≈ are worked out from the molar mass of the structure shown. Square brackets hold non-standard residues; d marks the D form. Ends that are not written are not given here. Peptide text beside a SMILES is read from it. AEEA = NCCOCCOCC(=O)O
What was measured:
[1] = Water solubility of peptides; format: physicochemical
Description: Both the peptide derivatives were synthetized using solid phase peptide synthesis protocols (SPPS) with Fmoc/OtBu strategy. After their purification by RP‐HPLC chromatography, peptides were characterized by ESI mass spectrometry (see Figure S8). The logP values, estimated using the ACD Lab ChemSketch software, predict the intrinsic water solubility of peptides. […] A diametric behaviour was noted using the organic solvent 1,1,1,3,3,3‐hexafluoro‐isopropan‐2‐ol (HFIP).[[11a], [12]] Indeed, in HFIP the peptide FYFCFYF is highly soluble (up to 200 mg/mL), whereas PEG8‐FYFCFYF is moderately soluble (up to 5 mg/mL). According to their different solubility, peptide solutions were prepared using two approaches: PEG8‐FYFCFYF solutions were prepared by a direct dissolution of the lyophilized powder in water, whereas FYFCFYF ones were obtained by dilution in water of a HFIP stock solution (100 mg/mL). […] Peptide concentration was then analytically quantified using UV‐Vis spectroscopy. Preliminarily, we evaluated the capability of both the peptides to aggregate in solution (at 2.0 mg/mL) using the Dynamic Light Scattering (DLS) technique. […] The formation of nanoarchitectures was further investigated by fluorescence spectroscopy. Despite the presence of four Phe residues in the peptides, their self‐assembling propensity cannot be evaluated by simply considering the Phe excimer formation. […]

[2] = Gelification, inverted test tube (CGC, gelation time, shelf stability, syneresis); format: physicochemical
Description: Interconnected fibers network can generate self‐supporting hydrogels as a consequence of additional physical cross‐linking phenomena or chemical modifications. In the specific case of peptide‐based HGs, these materials are formed by further entanglement of supramolecular fibrillary structures, which can be induced by increasing the total sample concentration, and as a consequence, the number of fibers and their mutual contacts.[21] During the preparation of FYFCFYF solutions, we observed a viscosity degree that increases proportionally to the peptide concentration. […] As reported in Figure S12, the critical gelation concentration (CGC) for FYFCFYF can be identified in the range 0.5 wt%<CGC<1.0 wt%. […] However, the characterization of others analogues of (FY)3 and PEG8‐(FY)3 [eg. (F‐Dopa)3 and (Nal‐Dopa)3 and their PEGylated versions PEG8‐(F‐Dopa)3 and PEG8‐(Nal‐Dopa)3] highlighted a diametrically opposed behavior respect to (FY)3.[10] All these evidences point out the importance of the hydrophilic/hydrophobic balance in the peptide sequence in the gelification process. Moreover, it is possible that the Cys side chain plays a role in the confinement and retention of water molecules in the gel. The stability of the FYFCFYF hydrogel (macroscopically evaluated in terms of homogeneity, opacity and reproducibility) and its capability to hold water (as difference between the weight of the matrix before and after an incubation in water overnight at room temperature) were evaluated by the swelling value q (See Equation (1)).[22] […] The shelf stability was also evaluated via inverted test tube. […]
The formation of an additional chemical network affects also on the CGC and swelling features. […] The efficiency of oxidation procedure was evaluated using the well‐assessed Ellman's test.[24] Ellman's reagent (5,5’‐dithio‐bis‐(2‐nitrobenzoic acid)) also known as DTNB, is a chromogenic compound used to quantify free sulfhydryl groups in solution. […] Thus, free thiol concentration can be indirectly determined by TNB UV‐Vis absorption at 412 nm. […]

NCCOCCOCC(=O)NCCOCCOCC(=O)NCCOCCOCC(=O)NCCOCCOCC(=O)N[C@@H](Cc1ccccc1)C(=O)N[C@@H](Cc1ccc(O)cc1)C(=O)N[C@@H](Cc1ccccc1)C(=O)N[C@@H](CS)C(=O)N[C@@H](Cc1ccccc1)C(=O)N[C@@H](Cc1ccc(O)cc1)C(=O)N[C@@H](Cc1ccccc1)C(N)=O [PEG8‐FYFCFYF] (H-[AEEA][AEEA][AEEA][AEEA]FYFCFYF-NH2)
solubility [1]: ~10000 µg/mL (≈ 6.19 mM)

FYFCFYF-NH2 [FYFCFYF]
shelf stability ([2]; hydrogel 1.0 wt%): 20 days | shelf stability ([2]; hydrogel 1.5 wt%): up to 40 days | shelf stability ([2]; hydrogel 2.0 wt%): up to 65 days | solubility [1]: 240 µg/mL
